{"source": "patent US20240285784A1", "about": "“PEPTIDIC CONJUGATES OF SN38 USEFUL IN THE TREATMENT OF CANCER” (FUNDACIÓ INSTITUT DE RECERCA BIOMÈDICA (IRB BARCELONA), priority 2020, published 2024)", "key": {"[1]": {"tested_on": "Ewing sarcoma cell line A673", "test": "MTS cell viability assay, Ewing sarcoma cell line A673", "type": "cell-based", "details": "72 h incubation, Example 9, Table 3, read-out: IC50 values against cancer cell lines", "source_text": "(§1) Cancer cell lines were obtained from the repository maintained at Hospital Sant Joan de Deu (Barcelona, Spain). Cancer cell lines used in these experiment included cancer types of adult glioma (U373 and U87 cell lines), pediatric gliomas including diffuse intrinsic pontine glioma (HSJD-DIPG-007, HSJD-DIPG-011), and pediatric high-grade glioma (HSJD-GBM-001), retinoblastoma (HSJD-RBT-5, HSJD-RBT-7 and HSJD-RBT-14), Ewing sarcoma (A673), rhabdomyosarcoma (Rd and RH4) and neuroblastoma (LAN-1 and SK-N-JD cell lines and HSJD-NB-004, HSJD-NB-005 and HSJD-NB-016 patient-derived cell models). […] To add the drugs to the cells in culture, SN38-linker A-MiniAp4 (Ia) and irinotecan were prepared in culture medium from stock solutions at concentration 1 mg/mL in water. SN38 was prepared in culture medium from a stock solution at concentration 1 mg/mL in DMSO. […] Activity curves were built for adult glioma cell lines U87 (FIG. 1) and U373 (FIG. 2), pediatric gliomas including DIPG models HSJD-DIPG-007 (FIG. 3) and HSJD-DIPG-011 (FIG. 4), and pediatric high-grade glioma model HSJD-GBM-001 (FIG. 5), retinoblastoma models HSJD-RBT-5 (FIG. 6), HSJD-RBT-7 (FIG. 7) and HSJD-RBT-14 (FIG. 8), Ewing sarcoma cell line A673 (FIG. 9), rhabdomyosarcoma cell lines Rd (FIG. 10) and RH4 (FIG. 11), neuroblastoma cell lines LAN-1 (FIG. 12) and SK-N-JD (FIG. 13) and neuroblastoma patient-derived cell models HSJD-NB-004 (FIG. 14), HSJD-NB-005 (FIG. 15) and HSJD-NB-016 (FIG. 16). The established IC50 values are in Table 3."}, "[2]": {"tested_on": "diffuse intrinsic pontine glioma HSJD-DIPG-007", "test": "cells", "source_text": "as §1\nCancer cell lines used in these experiments were pediatric gliomas including diffuse intrinsic pontine glioma HSJD-DIPG-007, and pediatric high-grade glioma HSJD-GBM-001. […] To add the drugs to the cells in culture, SN38-Linker A-MiniAp4 (Ia) and SN38-Linker B-THRre were prepared in culture medium from stock solutions at concentration 1 mg/mL in water. SN38 was prepared in culture medium from a stock solution at concentration 1 mg/mL in DMSO. […] Activity curves were built for cells HSJD-DIPG-007 (FIG. 20) and HSJD-GBM-001 (FIG. 21).\nCancer cell lines used in these experiments were pediatric gliomas including diffuse intrinsic pontine glioma HSJD-DIPG-007, and pediatric high-grade glioma HSJD-GBM-001. […] All compounds were prepared in culture medium from stock solutions at concentration 1 mg/mL in water. […] Activity curves were built for cells HSJD-DIPG-007 (FIG. 22) and HSJD-GBM-001 (FIG. 23).\nCancer cell line used in these experiment was HSJD-DIPG-007."}, "[3]": {"tested_on": "adult glioma cell line U373", "test": "MTS cell viability assay, adult glioma cell line U373", "type": "cell-based", "details": "72 h incubation, Example 9, Table 3, read-out: IC50 values against cancer cell lines", "source_text": "as §1"}, "[4]": {"tested_on": "rhabdomyosarcoma cell line Rd", "test": "MTS cell viability assay, rhabdomyosarcoma cell line Rd", "type": "cell-based", "details": "72 h incubation, Example 9, Table 3, read-out: IC50 values against cancer cell lines", "source_text": "as §1"}, "[5]": {"tested_on": "rhabdomyosarcoma cell line RH4", "test": "MTS cell viability assay, rhabdomyosarcoma cell line RH4", "type": "cell-based", "details": "72 h incubation, Example 9, Table 3, read-out: IC50 values against cancer cell lines", "source_text": "as §1"}, "[6]": {"tested_on": "retinoblastoma cell model HSJD-RBT-5", "test": "MTS cell viability assay, retinoblastoma model HSJD-RBT-5", "type": "cell-based", "details": "72 h incubation, Example 9, Table 3, read-out: IC50 values against cancer cell lines", "source_text": "as §1"}, "[7]": {"tested_on": "retinoblastoma cell model HSJD-RBT-7", "test": "MTS cell viability assay, retinoblastoma model HSJD-RBT-7", "type": "cell-based", "details": "72 h incubation, Example 9, Table 3, read-out: IC50 values against cancer cell lines", "source_text": "as §1"}, "[8]": {"tested_on": "adult glioma cell line U87", "test": "MTS cell viability assay, adult glioma cell line U87", "type": "cell-based", "details": "72 h incubation, Example 9, Table 3, read-out: IC50 values against cancer cell lines", "source_text": "as §1"}, "[9]": {"tested_on": "neuroblastoma patient-derived cell model HSJD-NB-005", "test": "MTS cell viability assay, neuroblastoma model HSJD-NB-005", "type": "cell-based", "details": "72 h incubation, Example 9, Table 3, read-out: IC50 values against cancer cell lines", "source_text": "as §1"}, "[10]": {"tested_on": "neuroblastoma patient-derived cell model HSJD-NB-016", "test": "MTS cell viability assay, neuroblastoma model HSJD-NB-016", "type": "cell-based", "details": "72 h incubation, Example 9, Table 3, read-out: IC50 values against cancer cell lines", "source_text": "as §1"}, "[11]": {"test": "Evaluation of solubility in water", "type": "physicochemical", "description": "25 mg of SN38-linker A-MiniAp4 were dissolved in H2O, showing a completely transparent solution. This means that SN38-linker A-MiniAp4 has a solubility in water higher than 5 mg/mL, more than 400-fold the solubility in water described for SN38 (Mol. Pharmaceutics, 2016, 13, 379-390)."}, "[12]": {"test": "Maximum tolerated dose, single intravenous injection", "type": "in vivo, mice", "details": "mouse, in vivo; single intravenous injection, athymic nude mice, observed 14 days", "description": "(§2) To evaluate the toxicity of irinotecan and SN38-linker A-MiniAp4 (Ia) (also named G2B-001) in athymic nude mice (10 week old; 8 mice per group) first the maximum tolerated dose (MTD) of SN38-linker A-MiniAp4 (Ia) was studied, by intravenous injection. Three mice were injected at dose levels 200, 500 and 1000 mg/kg, and observed for symptoms including death or weight lost during the following 14 days. The MTD was established at 200 mg/kg."}, "[13]": {"tested_on": "athymic nude mice", "test": "Maximum tolerated dose, single intravenous injection", "type": "in vivo", "details": "200 mg/kg single i.v., following 14 days, compared to untreated control animals", "description": "as §2"}, "[14]": {"test": "Stability in human serum at 37° C. in vitro", "type": "in vitro ADME", "details": "200 μM in HBSS, 90% human serum", "description": "Regarding to the stability in human serum of the SN38-linker A-MiniAp4 (Ia) (example 7), it was incubated at a concentration of 200 μM in buffer HBSS at 37° C. in the presence of 90% human serum. At a range of times, 100 μL aliquots were collected to which 400 μL cold methanol was added in order to precipitate the serum proteins. The samples were centrifuged at 3000 rpm at 4° C. during 30 min, filtered and analyzed by UPLC-PDA and UPLC-MS to determine the degree of degradation of SN38-Linker A-MiniAp4 (Ia)."}, "[15]": {"details": "HSJD-DIPG-007, 72 h, read-out: IC50 values against cancer cell lines"}}, "note": "Read-outs that look alike come from different tables or passages of the source. *1 amine or outer side, *2 acyl side, *3 side chain or, on linkers, in order; H or OH if unused. Where a SMILES comes first, the peptide text is derived from it. Bridges are numbered along the chain shown (N, C = ends). [ ]: non-standard residue; d: D form. The star is where a group is joined. X1 = CCc1c2c(nc3ccc(O)cc13)-c1cc3c(c(=O)n1C2)COC(=O)[C@@]3(CC)OC(=O)CCCCn1cc(CCCC(=O)NCCCOCCOCCOCCCN*)nn1; Suc = O=C(CCC(=O)[*:2])[*:1]; Dap = NC[C@H](N)C(=O)O"}
{"smiles": "CCc1c2c(nc3ccc(OC(=O)N4CCC(N5CCCCC5)CC4)cc13)-c1cc3c(c(=O)n1C2)COC(=O)[C@]3(O)CC", "note": "[Irinotecan]", "values": [{"measurement": "IC50", "setting": "[1]; Homo sapiens", "value": 1440, "unit": "nM"}, {"measurement": "IC50", "setting": "[2]; [15]", "value": 4.75, "unit": "µM"}, {"measurement": "IC50", "setting": "[3]; Homo sapiens, U373 MG", "value": 3720, "unit": "nM"}, {"measurement": "IC50", "setting": "[4]; Rhabdomyosarcoma cell", "value": 5960, "unit": "nM"}, {"measurement": "IC50", "setting": "[5]; Rhabdomyosarcoma cell", "value": 10800, "unit": "nM"}, {"measurement": "IC50", "setting": "[6]", "value": 911, "unit": "nM"}, {"measurement": "IC50", "setting": "[7]", "value": 1120, "unit": "nM"}, {"measurement": "IC50", "setting": "[8]; Glioma cell", "value": 9750, "unit": "nM"}, {"measurement": "IC50", "setting": "[9]", "value": 8200, "unit": "nM"}, {"measurement": "IC50", "setting": "[10]", "value": 659, "unit": "nM"}]}
{"smiles": "CCc1c2c(nc3ccc(O)cc13)-c1cc3c(c(=O)n1C2)COC(=O)[C@]3(O)CC", "note": "[SN38, 7-ethyl-10-hydroxy-camptothecin]", "values": [{"measurement": "IC50", "setting": "[1]; Homo sapiens", "value": 0.462, "unit": "nM"}, {"measurement": "IC50", "setting": "[2]; HSJD-DIPG-007, 72 h, read-out: IC50 values (μM)", "value": 0.000739, "unit": "µM"}, {"measurement": "IC50", "setting": "[2]; [15]", "value": 0.00113, "unit": "µM"}, {"measurement": "IC50", "setting": "[2]; HSJD-DIPG-007, 72 h, read-out: IC50 values of compounds", "value": 0.00151, "unit": "µM"}, {"measurement": "IC50", "setting": "[3]; Homo sapiens, U373 MG", "value": 0.869, "unit": "nM"}, {"measurement": "IC50", "setting": "[4]; Rhabdomyosarcoma cell", "value": 1.57, "unit": "nM"}, {"measurement": "IC50", "setting": "[5]; Rhabdomyosarcoma cell", "value": 14.8, "unit": "nM"}, {"measurement": "IC50", "setting": "[6]", "value": 10.3, "unit": "nM"}, {"measurement": "IC50", "setting": "[7]", "value": 0.335, "unit": "nM"}, {"measurement": "IC50", "setting": "[8]; Glioma cell", "value": 4.04, "unit": "nM"}, {"measurement": "IC50", "setting": "[9]", "value": 12.5, "unit": "nM"}, {"measurement": "IC50", "setting": "[10]", "value": 12.3, "unit": "nM"}]}
{"smiles": "CCc1c2c(nc3ccc(O)cc13)-c1cc3c(c(=O)n1C2)COC(=O)[C@@]3(CC)OC(=O)CCCCn1cc(CCCC(=O)NCCCOCCOCCOCCCNC(=O)CCC(=O)N[C@H]2CNC(=O)C[C@@H](C(N)=O)NC(=O)[C@H](CC(C)C)NC(=O)[C@H](C)NC(=O)[C@H]([C@@H](C)O)NC(=O)[C@H](CCC(=O)O)NC(=O)[C@@H]3CCCN3C(=O)[C@H](C)NC(=O)[C@H](CCCCN)NC2=O)nn1", "note": "[SN38-linker A-MiniAp4 (Ia)] ({X1-Suc}-[Dap]KAPETALD-NH2; lactam 1-9)", "values": [{"measurement": "IC50", "setting": "[1]", "value": 3.8, "unit": "nM"}, {"measurement": "IC50", "setting": "[2]; read-out: IC50 values (μM) against cancer cell lines, HSJD-DIPG-007, MTS, 72 h incubation, Example 12, Table 5", "value": 0.0203, "unit": "µM"}, {"measurement": "IC50", "setting": "[2]; read-out: IC50 values against cancer cell lines, HSJD-DIPG-007, MTS, 72 h incubation, Example 9, Table 3", "value": 0.0342, "unit": "µM"}, {"measurement": "IC50", "setting": "[2]; read-out: IC50 values of compounds, HSJD-DIPG-007, MTS, 72 h incubation, Example 11, Table 4", "value": 0.0107, "unit": "µM"}, {"measurement": "IC50", "setting": "[2]; read-out: IC50 values, HSJD-DIPG-007, MTS, 72 h incubation, Example 25, Table 8", "value": 0.0278, "unit": "µM"}, {"measurement": "IC50", "setting": "[3]", "value": 6.65, "unit": "nM"}, {"measurement": "IC50", "setting": "[4]", "value": 6.94, "unit": "nM"}, {"measurement": "IC50", "setting": "[5]", "value": 81.5, "unit": "nM"}, {"measurement": "IC50", "setting": "[6]", "value": 92.1, "unit": "nM"}, {"measurement": "IC50", "setting": "[7]", "value": 15.1, "unit": "nM"}, {"measurement": "IC50", "setting": "[8]", "value": 744, "unit": "nM"}, {"measurement": "IC50", "setting": "[9]", "value": 51.5, "unit": "nM"}, {"measurement": "IC50", "setting": "[10]", "value": 25.6, "unit": "nM"}, {"measurement": "solubility in water relative to the solubility in water described for SN38", "setting": "[11]; versus literature solubility of SN38 (Mol. Pharmaceutics, 2016, 13, 379-390)", "value": "more than 400 fold"}, {"measurement": "solubility", "setting": "[11]; water, 25 mg dissolved in H2O, completely transparent solution", "value": "> 5000", "unit": "µg/mL"}, {"measurement": "MTD at 14 days", "setting": "[12]", "value": 200, "unit": "mg/kg"}, {"measurement": "symptoms including death or weight lost at the MTD", "setting": "[13]", "value": "survived and did not show immediate symptoms of distress or significant weight lost"}, {"measurement": "half-life at 200 μM", "setting": "[14]", "value": "> 24", "unit": "h"}, {"measurement": "degree of degradation in human serum", "setting": "[14]; 24 h", "value": "No significant degradation"}]}
